Each structure is given as a SMILES string.

One assay concerns the target T1, sGC α1/β1 heterodimer (Homo sapiens, UniProt Q02108+Q02153).
T1 construct: expressed in transfected cells; host or cells: CHO-K1 (clone #7, CHO-K1/sGC)
T1 sequence (Q02108 1-690): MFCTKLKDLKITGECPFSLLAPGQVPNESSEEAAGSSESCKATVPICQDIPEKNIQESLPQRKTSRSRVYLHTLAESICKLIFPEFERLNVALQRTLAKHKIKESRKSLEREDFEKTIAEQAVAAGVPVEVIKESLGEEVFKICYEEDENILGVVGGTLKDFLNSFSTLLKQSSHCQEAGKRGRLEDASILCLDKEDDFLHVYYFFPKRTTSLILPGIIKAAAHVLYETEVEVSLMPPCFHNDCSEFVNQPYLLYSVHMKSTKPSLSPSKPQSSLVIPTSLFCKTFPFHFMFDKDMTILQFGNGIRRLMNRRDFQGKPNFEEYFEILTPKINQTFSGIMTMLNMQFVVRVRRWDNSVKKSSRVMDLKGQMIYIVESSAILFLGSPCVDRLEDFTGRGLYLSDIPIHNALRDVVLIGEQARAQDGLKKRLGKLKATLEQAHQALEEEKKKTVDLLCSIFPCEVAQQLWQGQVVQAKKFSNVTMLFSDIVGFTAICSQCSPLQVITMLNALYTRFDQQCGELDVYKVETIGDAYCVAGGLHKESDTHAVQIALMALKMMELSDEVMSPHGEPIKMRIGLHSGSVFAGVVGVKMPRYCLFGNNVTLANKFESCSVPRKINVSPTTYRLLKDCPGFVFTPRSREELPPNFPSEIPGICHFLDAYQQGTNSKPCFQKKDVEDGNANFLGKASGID
T1 sequence (Q02153 1-619): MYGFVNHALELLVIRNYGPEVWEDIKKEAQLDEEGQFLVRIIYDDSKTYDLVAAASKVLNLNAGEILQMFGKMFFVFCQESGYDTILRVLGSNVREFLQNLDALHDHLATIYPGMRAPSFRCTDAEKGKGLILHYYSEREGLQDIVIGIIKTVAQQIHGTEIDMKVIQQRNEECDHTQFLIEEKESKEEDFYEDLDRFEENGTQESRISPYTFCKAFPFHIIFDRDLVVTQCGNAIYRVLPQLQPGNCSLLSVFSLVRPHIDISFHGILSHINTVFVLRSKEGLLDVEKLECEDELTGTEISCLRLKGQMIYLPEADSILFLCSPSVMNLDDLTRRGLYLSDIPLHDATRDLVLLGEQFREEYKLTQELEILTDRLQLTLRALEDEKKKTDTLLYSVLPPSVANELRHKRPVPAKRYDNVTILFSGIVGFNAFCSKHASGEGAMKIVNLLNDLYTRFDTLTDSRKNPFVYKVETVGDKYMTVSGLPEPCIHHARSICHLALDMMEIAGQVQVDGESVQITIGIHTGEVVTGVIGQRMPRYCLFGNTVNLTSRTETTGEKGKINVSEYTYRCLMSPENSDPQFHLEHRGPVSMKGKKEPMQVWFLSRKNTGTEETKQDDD
Description: Cell-Based sGC Functional Assay (CASA Assay), cGMP by HTRF in CHO-K1/sGC cells. The following applies: for Emax: CHO-K1, percent activation relative to maximum cGMP production of Compound A (= 100%), read-out: % Act.; for EC50: cGMP production, 1 hr at 37° C., 4P fit, presence or absence of 1 μM DETA-NO not given, read-out: IP (nM) (inflection point). In outline:
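CHO-K1 cells stably expressing human sGC α1/β1, in EBSS buffer with 5 mM MgCl2, 10 mM HEPES, 0.05% BSA and 0.5 mM IBMX, incubated with compound (2.5% DMSO) ± 1 μM DETA-NO, 1 h, 37 °C. Intracellular cGMP read by HTRF; activity as % of reference activator maximum, IP from 4-parameter fit.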
For orientation: In TR-FRET formats the signal depends on donor and acceptor labels being close together.

For assay [1], the system named is Spontaneously hypertensive rats (SHR). Description: Acute Efficacy in Spontaneously Hypertensive Rats (SHR), telemetry blood pressure. The format is in vivo, rat. The following applies: SHR male. The source says: Acute Efficacy in Spontaneously Hypertensive Rats (SHR)
Spontaneously hypertensive rats (SHR, male, Charles River) were implanted with DSI TA11PA-C40 telemetry device (Data Sciences, Inc., St. Paul, Minn.) under isoflurane or ketamine/metomidine anesthesia. The telemetry unit catheter was inserted into the descending aorta via the femoral artery and the telemetry device was implanted subcutaneously in the left flank area. Animals were allowed to recover from surgery for 14 days before the start of any studies. Blood pressure, heart rate, and activity signals from conscious, freely moving rats were recorded continuously for 30 seconds every 10 minutes. On the day prior to administration of compound, a single oral dose of vehicle (10% transcutol/20% Cremophor/70% water) was administered to all animals to establish baseline control data. The blood pressure lowering efficacy of compound (PO) or vehicle was evaluated following a single oral gavage. Data were collected as hourly averages, and changes in blood pressure were calculated by subtracting control baseline data on an hourly basis. Animals were maintained on normal diet with a 12 hour light-dark cycle.
Maximum peak decreases of systolic blood pressure (SBP) in SHR at a particular P.O. dose (mpk milligrams per kilogram) for the following representative compounds are provided. • Category A=SBP in SHRs<20 mmHg; Category B=SBP in SHRs 20-40 mmHg; • Category C=SBP in SHRs>40 mmHg

With `O=C1Nc2nc(-c3cn4ccnc4c(CCCC(F)(F)F)n3)ncc2C1(c1ccc(Cl)cc1)C1CC1` (stereo not shown) [Example 50B, 5-(4-chlorophenyl)-5-cyclopropyl-2-(8-(4,4,4-trifluorobutyl)imidazo[1,2-a]pyrazin-6-yl)-5H-pyrrolo[2,3-d]pyrimidin-6(7H)-one], on sGC α1/β1 heterodimer, the Emax is 155% and the EC50 came to 63 nM. The “Cat. (maximum peak decrease of systolic blood pressure (SBP) in SHR)” value in assay [1] (single oral dose 1.0 mpk P.O.) was “B (Category B=SBP in SHRs 20-40 mmHg)”.

Turning to `Cc1cn2cc(-c3ncc4c(n3)NC(=O)C4(C)c3ccc(F)cn3)nc(CCCC(F)(F)F)c2n1` (stereo not shown) [Example 90B, 5-(5-Fluoropyridin-2-yl)-5-methyl-2-(2-methyl-8-(4,4,4-trifluorobutyl)imidazo[1,2-a]pyrazin-6-yl)-5H-pyrrolo[2,3-d]pyrimidin-6(7H)-one], on sGC α1/β1 heterodimer, the Emax worked out at 191% and the EC50 came to 589 nM. Further, in assay [1] (single oral dose 0.3 mpk P.O.), the “Cat. (maximum peak decrease of systolic blood pressure (SBP) in SHR)” value is recorded as “B (Category B=SBP in SHRs 20-40 mmHg)”.

Consider `CC1(c2ccc(F)cn2)C(=O)Nc2nc(-c3cn4ccnc4c(CC4CCC4)n3)nc(O)c21` (stereo not shown) [Example 31B, 2-(8-(cyclobutylmethyl)imidazo [1,2-a]pyrazin-6-yl)-5-(5-fluoropyridin-2-yl)-4-hydroxy-5-methyl-5H-pyrrolo[2,3-d]pyrimidin-6(7H)-one], for which, on sGC α1/β1 heterodimer, the Emax turned out to be 82% and the EC50 was 459 nM. Further, the “Cat. (maximum peak decrease of systolic blood pressure (SBP) in SHR)” value in assay [1] (single oral dose 3.0 mpk P.O.) is on record as “B (Category B=SBP in SHRs 20-40 mmHg)”.

Consider `O=C1Nc2nc(-c3cn4ccnc4c(CCCC(F)(F)F)n3)nc(O)c2C1(c1ccc(Cl)cc1)C1CC1` (stereo not shown) [Example 24B, 5-(4-chlorophenyl)-5-cyclopropyl-4-hydroxy-2-(8-(4,4,4-trifluorobutyl)imidazo[1,2-a]pyrazin-6-yl)-5H-pyrrolo[2,3-d]pyrimidin-6(7H)-one], for which, on sGC α1/β1 heterodimer, the Emax was found to be 169% and the EC50 was determined as 106 nM. For the same compound, in assay [1] (single oral dose 3.0 mpk P.O.), the “Cat. (maximum peak decrease of systolic blood pressure (SBP) in SHR)” value is listed as “A (Category A=SBP in SHRs<20 mmHg)”.

For the compound `CC1(c2ccc(F)cc2)C(=O)Nc2nc(-c3cn4ccnc4c(CCCC(F)(F)F)n3)nc(O)c21` (stereo not shown) [Example 30A, 5-(4-fluorophenyl)-4-hydroxy-5-methyl-2-(8-(4,4,4-trifluorobutyl)imidazo[1,2-a]pyrazin-6-yl)-5H-pyrrolo[2,3-d]pyrimidin-6(7H)-one], on sGC α1/β1 heterodimer, the Emax was 89% and the EC50 was determined as 436 nM. Besides, the “Cat. (maximum peak decrease of systolic blood pressure (SBP) in SHR)” value in assay [1] (single oral dose 1.0 mpk P.O.) was “B (Category B=SBP in SHRs 20-40 mmHg)”.

As to `CC1(c2ccc(F)cn2)C(=O)Nc2nc(-c3cn4ccnc4c(Cc4ccc(F)cc4)n3)nc(O)c21` (stereo not shown) [Example 6B, 2-(8-(4-fluorobenzyl)imidazo[1,2-a]pyrazin-6-yl)-5-(5-fluoropyridin-2-yl)-4-hydroxy-5-methyl-5H-pyrrolo[2,3-d]pyrimidin-6(7H)-one], on sGC α1/β1 heterodimer, the Emax stood at 118% and the EC50 was determined as 253 nM. In assay [1] (single oral dose 1.0 mpk P.O.), the “Cat. (maximum peak decrease of systolic blood pressure (SBP) in SHR)” value is “C (Category C=SBP in SHRs>40 mmHg)”.

Regarding `CC1(c2ccc(F)cc2)C(=O)Nc2nc(-c3cn4ccnc4c(CCC(F)(F)C(F)(F)F)n3)nc(O)c21` (stereo not shown) [Example 2A, 5-(4-Fluorophenyl)-4-hydroxy-5-methyl-2-(8-(3,3,4,4,4-pentafluorobutyl)imidazo[1,2-a]pyrazin-6-yl)-5H-pyrrolo[2,3-d]pyrimidin-6(7H)-one], at sGC α1/β1 heterodimer, the Emax amounted to 102% and the EC50 is 433 nM. Also, in assay [1] (single oral dose 3.0 mpk P.O.), the “Cat. (maximum peak decrease of systolic blood pressure (SBP) in SHR)” value was “B (Category B=SBP in SHRs 20-40 mmHg)”.

Take `CCCCc1nc(-c2nc(O)c3c(n2)NC(=O)C3(c2ccc(Cl)cn2)C2CC2)cn2ccnc12` (stereo not shown) [Example 25A, 2-(8-butylimidazo[1,2-a]pyrazin-6-yl)-5-(5-chloropyridin-2-yl)-5-cyclopropyl-4-hydroxy-5H-pyrrolo[2,3-d]pyrimidin-6(7H)-one]: at sGC α1/β1 heterodimer, the Emax worked out at 153% and the EC50 turned out to be 240 nM.

For `O=C1Nc2nc(-c3cn4ccnc4c(CCCC(F)(F)F)n3)nc(O)c2C1(c1ccc(Cl)cn1)C1CC1` (stereo not shown) [Example 10A, 5-(5-chloropyridin-2-yl)-5-cyclopropyl-4-hydroxy-2-(8-(4,4,4-trifluorobutyl)imidazo[1,2-a]pyrazin-6-yl)-5H-pyrrolo[2,3-d]pyrimidin-6(7H)-one], at sGC α1/β1 heterodimer, the Emax amounted to 126% and the EC50 was 658 nM.

In the case of `CC1(c2ccc(Cl)cc2)C(=O)Nc2nc(-c3cn4ccnc4c(CCC(F)(F)F)n3)nc(C3CC3)c21` (stereo not shown) [Example 74A, 5-(4-chlorophenyl)-4-cyclopropyl-5-methyl-2-(8-(3,3,3-trifluoropropyl)imidazo[1,2-a]pyrazin-6-yl)-5H-pyrrolo[2,3-d]pyrimidin-6(7H)-one], on sGC α1/β1 heterodimer, the Emax turned out to be 165% and the EC50 is 124 nM.

Regarding `O=C1Nc2nc(-c3cn4ccnc4c(CCCC(F)(F)F)n3)nc(O)c2C1(c1ccc(F)c(F)c1)C1CC1` (stereo not shown) [Example 20A, 5-cyclopropyl-5-(3,4-difluorophenyl)-4-hydroxy-2-(8-(4,4,4-trifluorobutyl)imidazo[1,2-a]pyrazin-6-yl)-5H-pyrrolo[2,3-d]pyrimidin-6(7H)-one], at sGC α1/β1 heterodimer, the Emax was found to be 139% and the EC50 worked out at 462 nM.

Turning to `O=C1Nc2nc(-c3cn4ccnc4c(CCC(F)(F)C(F)(F)F)n3)ncc2C1(c1ccc(Cl)cn1)C1CC1` (stereo not shown) [Example 7A, 5-(5-chloropyridin-2-yl)-5-cyclopropyl-2-(8-(3,3,4,4,4-pentafluorobutyl)imidazo[1,2-a]pyrazin-6-yl)-5H-pyrrolo[2,3-d]pyrimidin-6(7H)-one], on sGC α1/β1 heterodimer, the Emax was found to be 113% and the EC50 was 343 nM.

`O=C1Nc2nc(-c3cn4ccnc4c(CCCC(F)(F)F)n3)ncc2C1(c1ccc(Cl)c(F)c1)C1CC1` (stereo not shown) [Example 48A, 5-(4-chloro-3-fluorophenyl)-5-cyclopropyl-2-(8-(4,4,4-trifluorobutyl)imidazo[1,2-a]pyrazin-6-yl)-5H-pyrrolo[2,3-d]pyrimidin-6(7H)-one]: at sGC α1/β1 heterodimer, the Emax came to 130% and the EC50 turned out to be 24 nM.

Regarding `CC1(C(=O)NC2CC2)C(=O)Nc2nc(-c3cn4ccnc4c(Cc4ccccc4F)n3)ncc21` (single isomer, unassigned) [Example 69B, N-cyclopropyl-2-(8-(2-fluorobenzyl)imidazo[1,2-a]pyrazin-6-yl)-5-methyl-6-oxo-6,7-dihydro-5H-pyrrolo[2,3-d]pyrimidine-5-carboxamide], at sGC α1/β1 heterodimer, the EC50 came to 226 nM. The “% Act.” value at sGC α1/β1 heterodimer (percent activation relative to maximum cGMP production of Compound A (= 100%)) came out at 118%.

For the compound `CC1(c2ccc(Cl)cc2)C(=O)Nc2nc(-c3cn4ccnc4cn3)nc(-c3ccccc3)c21` (stereo not shown) [Example 84A, 5-(4-Chlorophenyl)-2-(imidazo[1,2-a]pyrazin-6-yl)-5-methyl-4-phenyl-5H-pyrrolo[2,3-d]pyrimidin-6(7H)-one], at sGC α1/β1 heterodimer, the Emax was found to be 127% and the EC50 was 105 nM.

These data come from patent publication US10213429B2, “Imidazo-pyrazinyl derivatives useful as soluble guanylate cyclase activators” (Merck Sharp & Dohme Corp., priority 2015, dated 2019).
